One experiment concerns the target T1, human TRPA1 (Homo sapiens, UniProt O75762).
T1 construct: expressed in transfected cells; host or cells: Human embryonic kidney-derived 293T cells, transiently transfected with the pcDNA3.1/zeo(+) human TRPA1 plasmid
The experiment in a line: Measurement of TRPA1 antagonist activity (intracellular calcium increase, FLIPR, allylisothiocyanate stimulation). The class given is cell-based. The note with it: 293T cells transfected with human TRPA1; allylisothiocyanate 20 μM; concentration for 50% inhibitory rate; read-out: antagonism hTRPA1. The method in brief: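 IC50 derives from a sigmoid fit of inhibition of the 5-min FLIPR fluorescence change evoked by 20 μM allylisothiocyanate, normalized between agonist and buffer responses. Test substance, diluted in HBSS/20 mM HEPES pH 7.2 plus 0.1% BSA, was applied 10 min beforehand at room temperature to Calcium4-loaded 293T cells transiently expressing human TRPA1.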
(In general: A change in cytosolic calcium serves as a functional read-out for many receptors and channels.)
T1 sequence (O75762 whole entry): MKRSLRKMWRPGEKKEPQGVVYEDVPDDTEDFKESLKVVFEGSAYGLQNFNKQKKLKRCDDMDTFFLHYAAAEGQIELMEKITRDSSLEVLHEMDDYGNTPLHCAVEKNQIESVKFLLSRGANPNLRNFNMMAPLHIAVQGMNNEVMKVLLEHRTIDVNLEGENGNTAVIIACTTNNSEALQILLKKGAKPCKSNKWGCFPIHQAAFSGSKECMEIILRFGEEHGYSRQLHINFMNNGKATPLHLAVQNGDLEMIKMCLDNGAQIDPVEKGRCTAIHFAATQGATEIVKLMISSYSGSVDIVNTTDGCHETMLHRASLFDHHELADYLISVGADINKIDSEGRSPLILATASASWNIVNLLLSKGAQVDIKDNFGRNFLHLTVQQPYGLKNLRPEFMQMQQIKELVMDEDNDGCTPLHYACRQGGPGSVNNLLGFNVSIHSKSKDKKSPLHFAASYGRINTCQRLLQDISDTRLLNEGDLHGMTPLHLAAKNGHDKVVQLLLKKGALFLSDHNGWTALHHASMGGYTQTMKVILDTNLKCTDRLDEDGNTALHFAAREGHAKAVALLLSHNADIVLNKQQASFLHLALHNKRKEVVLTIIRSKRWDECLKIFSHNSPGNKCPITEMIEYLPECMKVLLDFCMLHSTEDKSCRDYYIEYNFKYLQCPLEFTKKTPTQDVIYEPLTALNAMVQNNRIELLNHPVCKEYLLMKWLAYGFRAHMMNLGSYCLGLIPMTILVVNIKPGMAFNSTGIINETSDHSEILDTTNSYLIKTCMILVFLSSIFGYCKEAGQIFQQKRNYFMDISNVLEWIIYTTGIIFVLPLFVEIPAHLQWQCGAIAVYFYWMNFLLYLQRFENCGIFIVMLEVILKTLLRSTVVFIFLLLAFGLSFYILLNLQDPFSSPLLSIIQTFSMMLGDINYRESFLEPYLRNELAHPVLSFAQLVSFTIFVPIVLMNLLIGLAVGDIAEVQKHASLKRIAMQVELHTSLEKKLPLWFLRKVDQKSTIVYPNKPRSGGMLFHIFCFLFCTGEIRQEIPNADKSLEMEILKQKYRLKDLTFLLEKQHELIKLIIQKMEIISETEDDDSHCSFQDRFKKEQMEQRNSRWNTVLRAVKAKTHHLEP
Turning to `O=C(NCc1cccc(OCc2ccccc2)c1)[C@@H]1CCN1S(=O)(=O)c1ccc(Cl)s1` [Example 109], the IC50 is 0.12 µM. The same measure, in the same setting: then `O=C(NCc1cccc(OCc2ccccc2)c1)[C@@H]1CCCN1S(=O)(=O)c1ccc(F)c(F)c1` [Example 110], with 0.076 µM; and `O=C(NCc1cccc(OCc2ccc(C(F)(F)F)cc2)c1)[C@@H]1C=CCN1S(=O)(=O)c1ccc(F)cc1` [Example 111], with 0.024 µM.

Regarding `O=C(NCc1cccc(OCc2ccc(C(F)(F)F)cc2)c1)[C@@H]1CCN1S(=O)(=O)c1ccc(F)cc1` [Example 112], the IC50 was found to be 0.23 µM. With `O=C(NCc1cccc(OCc2ccc(C(F)(F)F)cc2)c1)[C@@H]1CCCN1S(=O)(=O)c1ccc(Cl)cc1` [Example 113], the IC50 was 0.071 µM.

The same experiment, now with this note: allylisothiocyanate 20 μM stimulation, FLIPR calcium assay; read-out: antagonism hTRPA1.
As to `O=C(NCc1cccc(Oc2ccnc(C(F)(F)F)c2)c1)[C@@H]1CCCN1S(=O)(=O)c1ccc(F)cc1` [Example 114, (2S)-1-(4-fluorophenyl)sulfonyl-N-[[3-[[2-(trifluoromethyl)-4-pyridyl]oxy]phenyl]methyl]pyrrolidine-2-carboxamide], the IC50 came out at 0.57 µM. The same measure, in the same setting: then `O=C(NCc1cccc(Oc2ccc(C(F)(F)F)nc2)c1)[C@@H]1CCCN1S(=O)(=O)c1ccc(F)cc1` [Example 115, (2S)-1-(4-fluorophenyl)sulfonyl-N-[[3-[[6-(trifluoromethyl)-3-pyridyl]oxy]phenyl]methyl]pyrrolidine-2-carboxamide], with 0.21 µM. On the same count and under the same terms, then `CN(C)c1cccc(Oc2cccc(CNC(=O)[C@@H]3CCCN3S(=O)(=O)c3ccc(F)cc3)c2)c1` [Example 116, (2S)-N-[[3-[3-(dimethylamino)phenoxy]phenyl]methyl]-1-(4-fluorophenyl)sulfonyl-pyrrolidine-2-carboxamide], with 1.3 µM.

Turning to `CN(C)c1ccc(Oc2cccc(CNC(=O)[C@@H]3CCCN3S(=O)(=O)c3ccc(F)cc3)c2)cc1` [Example 117, (2S)-N-[[3-[4-(dimethylamino)phenoxy]phenyl]methyl]-1-(4-fluorophenyl)sulfonyl-pyrrolidine-2-carboxamide], the IC50 stood at 9.9 µM. The same measure, in the same setting: for `N#Cc1ccc(Oc2cccc(CNC(=O)[C@@H]3CCCN3S(=O)(=O)c3ccc(F)cc3)c2)cc1` [Example 118, (2S)-N-[[3-(4-cyanophenoxy)phenyl]methyl]-1-(4-fluorophenyl)sulfonyl-pyrrolidine-2-carboxamide] the value was 0.27 µM. The same measure, in the same setting: then `CC(C)(C)c1ccc(Oc2cccc(CNC(=O)[C@@H]3CCCN3S(=O)(=O)c3ccc(F)cc3)c2)cc1` [Example 119, (2S)-N-[[3-(4-tert-butylphenoxy)phenyl]methyl]-1-(4-fluorophenyl)sulfonyl-pyrrolidine-2-carboxamide], with 1 µM; and `O=C(NCc1cccc(OCc2ccc(Cl)cc2)c1)[C@@H]1CCCN1S(=O)(=O)c1ccc(F)cc1` [Example 120, (2S)-N-[[3-[(4-chlorophenyl)methoxy]phenyl]methyl]-1-(4-fluorophenyl)sulfonyl-pyrrolidine-2-carboxamide], with 0.017 µM; and `O=C(NCc1cccc(OCc2ccc(F)cc2)c1)[C@@H]1CCCN1S(=O)(=O)c1ccc(F)cc1` [Example 121, (2S)-N-[[3-[(4-fluorophenyl)methoxy]phenyl]methyl]-1-(4-fluorophenyl)sulfonyl-pyrrolidine-2-carboxamide], with 0.031 µM. Same read-out and setting: for `CC(C)(C)c1ccc(COc2cccc(CNC(=O)[C@@H]3CCCN3S(=O)(=O)c3ccc(F)cc3)c2)cc1` [Example 122] the value was 0.44 µM; for `O=C(NCc1cccc(OCc2cccc(C(F)(F)F)c2)c1)[C@@H]1CCCN1S(=O)(=O)c1ccc(F)cc1` [Example 123, (2S)-1-(4-fluorophenyl)sulfonyl-N-[[3-[[3-(trifluoromethyl)phenyl]methoxy]phenyl]methyl]pyrrolidine-2-carboxamide], 0.025 µM; for `COc1cccc(COc2cccc(CNC(=O)[C@@H]3CCCN3S(=O)(=O)c3ccc(F)cc3)c2)c1` [Example 124, (2S)-1-(4-fluorophenyl)sulfonyl-N-[[3-[(3-methoxyphenyl)methoxy]phenyl]methyl]pyrrolidine-2-carboxamide], 0.13 µM. As to `CN(C)c1cccc(COc2cccc(CNC(=O)[C@@H]3CCCN3S(=O)(=O)c3ccc(F)cc3)c2)c1` [Example 125, (2S)-N-[[3-[[3-(dimethylamino)phenyl]methoxy]phenyl]methyl]-1-(4-fluorophenyl)sulfonyl-pyrrolidine-2-carboxamide], the IC50 was determined as 0.038 µM.

`O=C(NCc1cccc(OCc2cccc(N3CCCCC3)c2)c1)[C@@H]1CCCN1S(=O)(=O)c1ccc(F)cc1` [Example 126, (2S)-1-(4-fluorophenyl)sulfonyl-N-[[3-[[3-(1-piperidyl)phenyl]methoxy]phenyl]methyl]pyrrolidine-2-carboxamide]: the IC50 is 0.038 µM.

On to `O=C(NCc1cccc(OCc2cccc(N3CCOCC3)c2)c1)[C@@H]1CCCN1S(=O)(=O)c1ccc(F)cc1` [Example 127, (2S)-1-(4-fluorophenyl)sulfonyl-N-[[3-[(3-morpholinophenyl)methoxy]phenyl]methyl]pyrrolidine-2-carboxamide], for which the IC50 was 0.13 µM. Same read-out and setting: then `O=C(NCc1cccc(OCc2ccccc2F)c1)[C@@H]1CCCN1S(=O)(=O)c1ccc(F)cc1` [Example 128, (2S)-N-[[3-[(2-fluorophenyl)methoxy]phenyl]methyl]-1-(4-fluorophenyl)sulfonyl-pyrrolidine-2-carboxamide], with 0.12 µM; and `CN(C)c1ccccc1COc1cccc(CNC(=O)[C@@H]2CCCN2S(=O)(=O)c2ccc(F)cc2)c1` [Example 129, (2S)-N-[[3-[[2-(dimethylamino)phenyl]methoxy]phenyl]methyl]-1-(4-fluorophenyl)sulfonyl-pyrrolidine-2-carboxamide], with 0.64 µM. Regarding `O=C(NCc1cccc(OCc2ccc(F)c(F)c2)c1)[C@@H]1CCCN1S(=O)(=O)c1ccc(F)cc1` [Example 130, (2S)-N-[[3-[(3,4-difluorophenyl)methoxy]phenyl]methyl]-1-(4-fluorophenyl)sulfonyl-pyrrolidine-2-carboxamide], the IC50 is 0.02 µM.

With `O=C(NCc1cccc(OCc2ccc(Cl)c(F)c2)c1)[C@@H]1CCCN1S(=O)(=O)c1ccc(F)cc1` [Example 131, (2S)-N-[[3-[(4-chloro-3-fluoro-phenyl)methoxy]phenyl]methyl]-1-(4-fluorophenyl)sulfonyl-pyrrolidine-2-carboxamide], the IC50 stood at 0.014 µM. The same measure, in the same setting: then `O=C(NCc1cccc(OCc2cccnc2)c1)[C@@H]1CCCN1S(=O)(=O)c1ccc(F)cc1` [Example 132, (2S)-1-(4-fluorophenyl)sulfonyl-N-[[3-(3-pyridylmethoxy)phenyl]methyl]pyrrolidine-2-carboxamide], with 2.6 µM.

On to `O=C(NCc1cccc(OCc2ccncc2)c1)[C@@H]1CCCN1S(=O)(=O)c1ccc(F)cc1` [Example 133, (2S)-1-(4-fluorophenyl)sulfonyl-N-[[3-(4-pyridylmethoxy)phenyl]methyl]pyrrolidine-2-carboxamide], for which the IC50 was determined as 4.4 µM. On the same count and under the same terms, then `O=C(NCc1cccc(OCc2ccc(C(F)(F)F)nc2)c1)[C@@H]1CCCN1S(=O)(=O)c1ccc(F)cc1` [Example 134, (2S)-1-(4-fluorophenyl)sulfonyl-N-[[3-[[6-(trifluoromethyl)-3-pyridyl]methoxy]phenyl]methyl]pyrrolidine-2-carboxamide], with 0.038 µM.

Regarding `O=C(NCc1cccc(OCc2ccnc(C(F)(F)F)c2)c1)[C@@H]1CCCN1S(=O)(=O)c1ccc(F)cc1` [Example 135, (2S)-1-(4-fluorophenyl)sulfonyl-N-[[3-[[2-(trifluoromethyl)-4-pyridyl]methoxy]phenyl]methyl]pyrrolidine-2-carboxamide], the IC50 came to 0.067 µM. On the same count and under the same terms, then `O=C(NCc1cccc(OCc2cccc(C(F)(F)F)n2)c1)[C@@H]1CCCN1S(=O)(=O)c1ccc(F)cc1` [Example 136, (2S)-1-(4-fluorophenyl)sulfonyl-N-[[3-[[6-(trifluoromethyl)-2-pyridyl]methoxy]phenyl]methyl]pyrrolidine-2-carboxamide], with 0.14 µM; and `O=C(NCc1cccc(OCc2cncc(C(F)(F)F)c2)c1)[C@@H]1CCCN1S(=O)(=O)c1ccc(F)cc1` [Example 137, (2S)-1-(4-fluorophenyl)sulfonyl-N-[[3-[[5-(trifluoromethyl)-3-pyridyl]methoxy]phenyl]methyl]pyrrolidine-2-carboxamide], with 0.044 µM; and `O=C(NCc1cccc(OCc2cncc(Cl)c2)c1)[C@@H]1CCCN1S(=O)(=O)c1ccc(F)cc1` [Example 138, (2S)-N-[[3-[(5-chloro-3-pyridyl)methoxy]phenyl]methyl]-1-(4-fluorophenyl)sulfonyl-pyrrolidine-2-carboxamide], with 0.11 µM.

On to `O=C(NCc1cccc(OCc2ccoc2)c1)[C@@H]1CCCN1S(=O)(=O)c1ccc(F)cc1` [Example 139, (2S)-1-(4-fluorophenyl)sulfonyl-N-[[3-(3-furylmethoxy)phenyl]methyl]pyrrolidine-2-carboxamide], for which the IC50 turned out to be 0.29 µM. Same read-out and setting: then `O=C(NCc1cccc(OCc2ccco2)c1)[C@@H]1CCCN1S(=O)(=O)c1ccc(F)cc1` [Example 140, (2S)-1-(4-fluorophenyl)sulfonyl-N-[[3-(2-furylmethoxy)phenyl]methyl]pyrrolidine-2-carboxamide], with 0.33 µM; and `O=C(NCc1cccc(OCc2ccsc2)c1)[C@@H]1CCCN1S(=O)(=O)c1ccc(F)cc1` [Example 141, (2S)-1-(4-fluorophenyl)sulfonyl-N-[[3-(3-thienylmethoxy)phenyl]methyl]pyrrolidine-2-carboxamide], with 0.089 µM; and `O=C(NCc1cccc(OCc2cccs2)c1)[C@@H]1CCCN1S(=O)(=O)c1ccc(F)cc1` [Example 142, (2S)-1-(4-fluorophenyl)sulfonyl-N-[[3-(2-thienylmethoxy)phenyl]methyl]pyrrolidine-2-carboxamide], with 0.11 µM.
